Calls of active or inactive are those of the source. The rule behind the calls is not given here.
Legend:
[1] = Metabolic stability in mouse liver microsomes assessed as intrinsic clearance at 0.5 uM incubated for 30 mins by LC-MS/MS analysis; type: ADME, Microsome; details: read-out: CLH
[2] = Metabolic stability in human liver microsomes assessed as intrinsic clearance at 0.5 uM incubated for 30 mins by LC-MS/MS analysis; type: ADME, Microsome; details: read-out: CLH
[3] = Metabolic stability in human hepatocytes assessed as intrinsic clearance incubated up to 24 hrs measured per 10^6 cells by LC-MS/MS analysis; type: ADME, cell-based, Hepatocyte
[4] = Metabolic stability in rat liver microsomes assessed as intrinsic clearance at 0.5 uM incubated for 30 mins by LC-MS/MS analysis; type: ADME, Microsome; details: read-out: CLH
[5] = Apparent permeability across apical to basolateral side in human Caco-2/TC7 cells assessed as drug recovery at 20 uM incubated for 2 hrs by LC-MS/MS analysis; type: ADME, cell-based, Caco2/TC7; details: read-out: Drug recovery
[6] = Apparent permeability across apical to basolateral side in human Caco-2/TC7 cells at 20 uM incubated for 2 hrs by LC-MS/MS analysis; type: ADME, cell-based, Caco2/TC7
[7] = Selectivity index, ratio of IC50 for cytotoxicity against human THP-1 cells to IC50 for antiplasmodial activity against Plasmodium falciparum 3D7 infected in human erythrocytes by HRP2-ELISA; type: toxicity, cell-based; details: read-out: Ratio IC50
Plasmodium falciparum [8] = assay: Antiplasmodial activity against CQ-susceptible Plasmodium falciparum 3D7 assessed as inhibition of parasite growth measured after 48 hrs by SYBR Green 1 dye based fluorescence assay; type: functional, organism-based; details: 3D7, 48 h
Plasmodium falciparum [9] = assay: Antiplasmodial activity against CQ-susceptible Plasmodium falciparum 3D7 infected in human erythrocytes assessed as inhibition of parasite growth measured after 72 hrs by HRP2-ELISA; type: functional, organism-based; details: 3D7, Erythrocyte
Plasmodium falciparum [10] = assay: Antiplasmodial activity CQ-resistant Plasmodium falciparum W2 infected in human erythrocytes assessed as inhibition of parasite growth measured after 72 hrs by HRP2-ELISA; type: functional, organism-based; details: W2, Erythrocyte
[11] = Cytotoxicity against Chinese hamster CHO cells assessed as reduction in cell viability incubated for 24 hrs by MTT assay; type: toxicity, cell-based, Cricetulus griseus
[12] = Cytotoxicity against human THP-1 cells assessed as reduction in cell viability incubated for 72 hrs by MTT assay; type: toxicity, cell-based
[13] = Selectivity index, ratio of IC50 for cytotoxicity against human HepG2 cells to IC50 for antiplasmodial activity against Plasmodium falciparum 3D7 infected in human erythrocytes by HRP2-ELISA; type: toxicity, cell-based; details: read-out: Ratio IC50
[14] = Cytotoxicity against human HepG2 cells assessed as reduction in cell viability incubated for 72 hrs by MTT assay; type: toxicity, cell-based
Plasmodium falciparum [15] = assay: Selectivity index, ratio of IC50 for antiplasmodial activity against CQ-susceptible Plasmodium falciparum 3D7 to IC50 for antiplasmodial activity CQ-resistant Plasmodium falciparum W2 by HRP2-ELISA; type: functional
[16] = Selectivity index, ratio of IC50 for human HFF cells to IC50 for antiplasmodial activity against Plasmodium falciparum 3D7 infected in human erythrocytes by HRP2-ELISA; type: toxicity, cell-based; details: read-out: Ratio IC50
[17] = Selectivity index, ratio of IC50 for cytotoxicity against chinese hamster CHO cells to IC50 for antiplasmodial activity against Plasmodium falciparum 3D7 infected in human erythrocytes by HRP2-ELISA; type: toxicity, cell-based; details: read-out: Ratio IC50
Plasmodium falciparum [18] = assay: Selectivity index, ratio of IC50 for antiplasmodial activity against CQ-susceptible Plasmodium falciparum 3D7 to IC50 for antiplasmodial activity against CQ-resistant Plasmodium falciparum W2 by SYBR Green 1 dye based fluorescence assay; type: functional
[19] = Cytotoxicity against human HFF cells assessed as reduction in cell viability incubated for 72 hrs by MTT assay; type: toxicity, cell-based
Plasmodium falciparum [20] = assay: Antiplasmodial activity against CQ-resistant Plasmodium falciparum W2 assessed as inhibition of parasite growth measured after 48 hrs by SYBR Green 1 dye based fluorescence assay; type: functional, organism-based; details: W2, 48 h
Plasmodium berghei [21] = assay: Antimalarial activity against Plasmodium berghei ANKA infected in BALB/c mouse assessed as increase in animal survival rate at 9 mg/kg, ip administered daily for 5 days and measured for 30 days; type: functional, organism-based; details: time 30.0 day
[22] = target: Voltage-gated inwardly rectifying potassium channel KCNH2 (Homo sapiens, UniProt Q12809); assay: Inhibition of hERG channel expressed in CHO cells at holding potential of -80 mV by whole cell patch clamp method; type: toxicity, cell-based
Plasmodium berghei [23] = assay: Antimalarial activity against Plasmodium berghei ANKA infected in BALB/c mouse assessed as time required for clearance of blood parasites at 9 mg/kg, ip administered daily for 5 days; type: functional; details: time 5 day

Voltage-gated inwardly rectifying potassium channel KCNH2, sequence (Q12809 whole entry): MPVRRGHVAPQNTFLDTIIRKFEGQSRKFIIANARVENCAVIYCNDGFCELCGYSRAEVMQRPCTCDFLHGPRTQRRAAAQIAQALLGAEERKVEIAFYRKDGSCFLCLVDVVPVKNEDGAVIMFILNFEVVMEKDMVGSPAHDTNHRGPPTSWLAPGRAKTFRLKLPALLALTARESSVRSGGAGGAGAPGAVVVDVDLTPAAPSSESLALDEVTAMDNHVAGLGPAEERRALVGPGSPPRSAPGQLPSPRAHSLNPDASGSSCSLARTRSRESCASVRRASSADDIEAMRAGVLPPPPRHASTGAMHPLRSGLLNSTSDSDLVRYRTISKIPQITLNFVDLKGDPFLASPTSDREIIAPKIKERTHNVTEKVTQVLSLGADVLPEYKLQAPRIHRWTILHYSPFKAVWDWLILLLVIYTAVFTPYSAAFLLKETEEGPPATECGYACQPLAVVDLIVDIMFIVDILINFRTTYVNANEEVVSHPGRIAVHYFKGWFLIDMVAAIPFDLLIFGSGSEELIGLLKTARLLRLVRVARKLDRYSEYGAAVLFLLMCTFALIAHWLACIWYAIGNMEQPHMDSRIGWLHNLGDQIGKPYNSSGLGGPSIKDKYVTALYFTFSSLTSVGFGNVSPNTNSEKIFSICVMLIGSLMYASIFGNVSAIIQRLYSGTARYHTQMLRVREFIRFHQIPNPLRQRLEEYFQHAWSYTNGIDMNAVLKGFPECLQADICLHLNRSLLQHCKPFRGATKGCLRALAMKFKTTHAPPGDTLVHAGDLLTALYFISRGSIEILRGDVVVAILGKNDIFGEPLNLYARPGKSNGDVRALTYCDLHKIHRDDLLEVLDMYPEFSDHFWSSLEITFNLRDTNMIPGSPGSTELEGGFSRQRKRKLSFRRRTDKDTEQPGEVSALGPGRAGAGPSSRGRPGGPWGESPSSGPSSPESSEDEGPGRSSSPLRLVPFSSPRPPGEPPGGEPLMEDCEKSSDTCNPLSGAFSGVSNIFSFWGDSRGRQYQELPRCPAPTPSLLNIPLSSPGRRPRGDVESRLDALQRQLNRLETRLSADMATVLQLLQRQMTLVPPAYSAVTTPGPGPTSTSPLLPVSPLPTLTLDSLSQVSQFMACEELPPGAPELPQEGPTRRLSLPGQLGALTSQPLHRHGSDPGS

| recovery at 2 h, 20 µM [5] [%] | Papp A→B at 2 h, 20 µM [6] [×10⁻⁶ cm/s] | SMILES | selectivity ratio [7] | IC50 (Plasmodium falciparum [8]) [nM] | IC50 (Plasmodium falciparum [9]) [nM] | IC50 (Plasmodium falciparum [10]) [nM] | IC50 at 24 h [11] [nM] | IC50 at 72 h [12] [nM] | selectivity ratio [13] | IC50 at 72 h [14] [nM] | Ratio IC50 (Plasmodium falciparum [15]) | selectivity ratio [16] | selectivity ratio [17] | Ratio IC50 (Plasmodium falciparum [18]) | IC50 at 72 h [19] [nM] | IC50 (Plasmodium falciparum [20]) [nM] | other results |
| --- | --- | --- | --- | --- | --- | --- | --- | --- | --- | --- | --- | --- | --- | --- | --- | --- | --- |
| 85 | 4.5 | O[C@H](c1cc(C(F)(F)F)nc2c(C(F)(F)F)cccc12)[C@@H]1CCCCN1 [(R,S)-MEFLOQUINE] | – | – | – | – | – | – | – | – | – | – | – | – | – | – | microsomal CLint at 0.5 µM [1]: < 20 µL/min/mg; microsomal CLint at 0.5 µM [2]: < 20 µL/min/mg; CLH [3]: 0.004 mL/h; microsomal CLint at 0.5 µM [4]: < 20 µL/min/mg |
| – | – | O[C@H](CNCC1CC1)c1cc(C(F)(F)F)nc2c(C(F)(F)F)cccc12 | 534 | 4.1 | 12.9 | 15.8 | 31000 | 6900 | 333 | 4300 | 0.8 | 1430 | 2400 | 1 | 18500 | 4.1 | – |
| – | – | O[C@H](CNCCN1CCN(C(c2ccccc2)c2ccccc2)CC1)c1cc(C(F)(F)F)nc2c(C(F)(F)F)cccc12 | 93 | 75.7 | 116 | 89.3 | 24800 | 10800 | 60 | 7000 | 1.3 | 114 | 213 | 1.2 | 13300 | 63 | – |
| – | – | O[C@@H](c1cc(C(F)(F)F)nc2c(C(F)(F)F)cccc12)[C@H]1CCCCN1 (relative stereo) | – | – | – | – | – | – | – | – | – | – | – | – | – | – | Activity (Plasmodium berghei [21]): Active |
| 86 | 3.7 | CCCCCNC[C@H](O)c1cc(C(F)(F)F)nc2c(C(F)(F)F)cccc12 | – | – | – | – | – | – | – | – | – | – | – | – | – | – | IC50 [22]: 5600 nM |
| – | – | Cl.O[C@@H](c1cc(C(F)(F)F)nc2c(C(F)(F)F)cccc12)[C@H]1CCCCN1 (relative stereo) | – | – | – | – | – | – | – | – | – | – | – | – | – | – | Time (Plasmodium berghei [23]): <100 h |
| 65 | 5.3 | CCCCCCCNC[C@@H](O)c1cc(C(F)(F)F)nc2c(C(F)(F)F)cccc12 | – | – | – | – | – | – | – | – | – | – | – | – | – | – | IC50 [22]: 7000 nM |
| – | – | OC[C@@H](Cc1ccccc1)NC[C@@H](O)c1cc(C(F)(F)F)nc2c(C(F)(F)F)cccc12 (single isomer, unassigned) | 73 | 35.6 | 102 | 82.7 | 35800 | 7500 | 151 | 15400 | 1.2 | 444 | 345 | 3.5 | 45400 | 10.3 | – |
| – | – | O[C@@H](CNCCCC(F)(F)F)c1cc(C(F)(F)F)nc2c(C(F)(F)F)cccc12 | 144 | 57.6 | 227 | 229 | 45400 | 32800 | 130 | 29700 | 1 | 64 | 199 | 0.9 | 14600 | 61 | – |
| – | – | O[C@@H](CNCCNC(c1ccccc1)c1ccccc1)c1cc(C(F)(F)F)nc2c(C(F)(F)F)cccc12 | 100 | 35.8 | 49.8 | 20.7 | 11600 | 5000 | 177 | 8800 | 2.4 | 881 | 233 | 1.05 | 43900 | 34 | – |
| 90 | 0.5 | CCCCCCCNC[C@H](O)c1cc(C(F)(F)F)nc2c(C(F)(F)F)cccc12 | – | – | – | – | – | – | – | – | – | – | – | – | – | – | IC50 [22]: > 30000 nM |
| – | – | COC[C@H](Cc1ccccc1)NC[C@H](O)c1cc(C(F)(F)F)nc2c(C(F)(F)F)cccc12 | 728 | 17.4 | 23.2 | 15.4 | 37600 | 16900 | 414 | 9600 | 1.5 | 1580 | 1620 | 1.5 | 36700 | 11.4 | – |
| – | – | O[C@H](CNCCCC(F)(F)F)c1cc(C(F)(F)F)nc2c(C(F)(F)F)cccc12 | > 8120 | 11.4 | 15.4 | 18.2 | 39500 | > 125000 | 493 | 7600 | 0.85 | 2310 | 2560 | 1.3 | 35600 | 8.55 | – |
| – | – | OC[C@H](Cc1ccccc1)NC[C@H](O)c1cc(C(F)(F)F)nc2c(C(F)(F)F)cccc12 (single isomer, unassigned) | 123 | 30.9 | 74.8 | 61.9 | 35200 | 9200 | 303 | 22700 | 1.2 | 718 | 470 | 9.4 | 53700 | 3.3 | – |
| – | – | O[C@@H](CNCC1CC1)c1cc(C(F)(F)F)nc2c(C(F)(F)F)cccc12 | 693 | 23 | 17.9 | 15.3 | 25400 | 12400 | 369 | 6600 | 1.2 | 2700 | 1420 | 1.4 | 48400 | 16.8 | – |
| – | – | OC[C@@H](Cc1ccccc1)NC[C@H](O)c1cc(C(F)(F)F)nc2c(C(F)(F)F)cccc12 | 73 | 36.2 | 106 | 63.8 | 26600 | 7800 | 158 | 16800 | 1.7 | 351 | 250 | 0.7 | 37400 | 54.3 | – |
| – | – | O[C@H](CNCCNC(c1ccccc1)c1ccccc1)c1cc(C(F)(F)F)nc2c(C(F)(F)F)cccc12 | 372 | 35.2 | 23.9 | 14.1 | 9000 | 8900 | 268 | 6400 | 1.7 | 694 | 377 | 1.2 | 16600 | 29.6 | – |
| 99 | 11.4 | CCCCCNC[C@@H](O)c1cc(C(F)(F)F)nc2c(C(F)(F)F)cccc12 | – | – | – | – | – | – | – | – | – | – | – | – | – | – | IC50 [22]: 8800 nM |
| – | – | OC[C@H](Cc1ccccc1)NC[C@@H](O)c1cc(C(F)(F)F)nc2c(C(F)(F)F)cccc12 | 124 | 30.2 | 58.1 | 39.4 | 29700 | 7200 | 188 | 10900 | 1.5 | 437 | 511 | 5.4 | 25400 | 5.6 | – |

| SMILES | recovery at 2 h, 20 µM [5] [%] | Papp A→B at 2 h, 20 µM [6] [×10⁻⁶ cm/s] | selectivity ratio [7] | IC50 (Plasmodium falciparum [8]) [nM] | IC50 (Plasmodium falciparum [9]) [nM] | IC50 (Plasmodium falciparum [10]) [nM] | IC50 at 24 h [11] [nM] | IC50 at 72 h [12] [nM] | selectivity ratio [13] | IC50 at 72 h [14] [nM] | Ratio IC50 (Plasmodium falciparum [15]) | selectivity ratio [16] | selectivity ratio [17] | Ratio IC50 (Plasmodium falciparum [18]) | IC50 at 72 h [19] [nM] | IC50 (Plasmodium falciparum [20]) [nM] | other results |
| --- | --- | --- | --- | --- | --- | --- | --- | --- | --- | --- | --- | --- | --- | --- | --- | --- | --- |
| O[C@@H](c1cc(C(F)(F)F)nc2c(C(F)(F)F)cccc12)[C@H]1CCCCN1 [(S,R)-MEFLOQUINE] | 91 | 4.5 | – | – | 54.1 | 28.3 | – | – | – | – | – | – | – | – | – | 31.8 | microsomal CLint at 0.5 µM [1]: < 20 µL/min/mg; microsomal CLint at 0.5 µM [2]: < 20 µL/min/mg; CLH [3]: 0.002 mL/h; microsomal CLint at 0.5 µM [4]: < 20 µL/min/mg |

Source: ChEMBL document CHEMBL5154649, “Design, synthesis, and characterization of novel aminoalcohol quinolines with strong in vitro antimalarial activity” (Eur J Med Chem, 2022)
